In PubChem BioAssay (NCI):
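Grown in 96-well plates, cells were treated for 48 hours with each compound at five concentrations. Insufficient inhibition: endpoint recorded as highest concentration tested. GI50 marks 50% less growth. TGI denotes the concentration required for complete inhibition of growth.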

Tests used:
Assay in all cases: growth of human tumour cells (NCI), 48 h
MDA-MB-231 breast = system: MDA-MB-231 breast
KM12 colon = system: KM12 colon
SK-MEL-5 melanoma = system: SK-MEL-5 melanoma
SNB-19 CNS = system: SNB-19 CNS
HOP-62 NSCLC = system: HOP-62 NSCLC
SF-268 CNS = system: SF-268 CNS
IGROV1 ovarian = system: IGROV1 ovarian
UACC-62 melanoma = system: UACC-62 melanoma
SR leukemia = system: SR leukemia
SNB-75 CNS = system: SNB-75 CNS
OVCAR-5 ovarian = system: OVCAR-5 ovarian
HL-60(TB) leukemia = system: HL-60(TB) leukemia
EKVX NSCLC = system: EKVX NSCLC
NCI-H226 lung = system: NCI-H226 lung
MDA-MB-435 = system: MDA-MB-435
A498 renal = system: A498 renal
MCF7 breast = system: MCF7 breast
HT29 colon = system: HT29 colon
NCI/ADR-RES ovarian = system: NCI/ADR-RES ovarian
786-0 renal = system: 786-0 renal
K-562 leukemia = system: K-562 leukemia
NCI-H522 lung = system: NCI-H522 lung
RPMI-8226 leukemia = system: RPMI-8226 leukemia
M14 melanoma = system: M14 melanoma
PC-3 prostate = system: PC-3 prostate
CCRF-CEM leukemia = system: CCRF-CEM leukemia
SW-620 colon = system: SW-620 colon
SK-MEL-28 melanoma = system: SK-MEL-28 melanoma
UO-31 renal = system: UO-31 renal
T-47D breast = system: T-47D breast
MALME-3M melanoma = system: MALME-3M melanoma
MOLT-4 leukemia = system: MOLT-4 leukemia
HCC-2998 colon = system: HCC-2998 colon
OVCAR-4 ovarian = system: OVCAR-4 ovarian
HCT-15 colon = system: HCT-15 colon
RXF 393 renal = system: RXF 393 renal
OVCAR-8 ovarian = system: OVCAR-8 ovarian
DU-145 prostate = system: DU-145 prostate
NCI-H460 lung = system: NCI-H460 lung
COLO 205 colon = system: COLO 205 colon
SK-MEL-2 melanoma = system: SK-MEL-2 melanoma
SF-539 CNS = system: SF-539 CNS
BT-549 breast = system: BT-549 breast
LOX IMVI melanoma = system: LOX IMVI melanoma
HS 578T breast = system: HS 578T breast
A549 NSCLC = system: A549 NSCLC
HOP-92 NSCLC = system: HOP-92 NSCLC
NCI-H23 lung = system: NCI-H23 lung
SK-OV-3 ovarian = system: SK-OV-3 ovarian
SF-295 CNS = system: SF-295 CNS
TK-10 renal = system: TK-10 renal
HCT-116 colon = system: HCT-116 colon
U251 CNS = system: U251 CNS
UACC-257 melanoma = system: UACC-257 melanoma
SN12C renal = system: SN12C renal
OVCAR-3 ovarian = system: OVCAR-3 ovarian
ACHN renal = system: ACHN renal
CAKI-1 renal = system: CAKI-1 renal

For `CN(C)CCCOc1ccc(OCCCN(C)C)c2c1C(=O)c1ccccc1C2=O`, the GI50 (MDA-MB-231 breast) was 0.908 µM, the TGI (MDA-MB-231 breast) was 4.63 µM and the GI50 (KM12 colon) was 0.961 µM. For the same compound, the TGI (KM12 colon) was 10.6 µM, the GI50 (SK-MEL-5 melanoma) was 1.86 µM and the TGI (SK-MEL-5 melanoma) was 3.56 µM. The GI50 (SNB-19 CNS) was 0.941 µM, the TGI (SNB-19 CNS) was 10 µM and the GI50 (HOP-62 NSCLC) was 0.634 µM. The TGI (HOP-62 NSCLC) was 3.54 µM, the GI50 (SF-268 CNS) was 1.32 µM and the TGI (SF-268 CNS) was 7.28 µM. It also gave a GI50 (IGROV1 ovarian) of 1.78 µM, a TGI (IGROV1 ovarian) of 14.2 µM and a GI50 (UACC-62 melanoma) of 1.89 µM. For the same compound, the TGI (UACC-62 melanoma) was 4.24 µM, the GI50 (SR leukemia) was 0.524 µM and the TGI (SR leukemia) was 5.05 µM. The GI50 (SNB-75 CNS) was 1.51 µM, the TGI (SNB-75 CNS) was 3.72 µM and the GI50 (OVCAR-5 ovarian) was 0.962 µM. The TGI (OVCAR-5 ovarian) was 5.29 µM, the GI50 (HL-60(TB) leukemia) was 2.14 µM and the TGI (HL-60(TB) leukemia) was 6.77 µM. It also gave a GI50 (EKVX NSCLC) of 2.3 µM, a TGI (EKVX NSCLC) of 11 µM and a GI50 (NCI-H226 lung) of 1.02 µM. For the same compound, the TGI (NCI-H226 lung) was 5.54 µM, the GI50 (MDA-MB-435) was 1.59 µM and the TGI (MDA-MB-435) was 3.19 µM. The GI50 (A498 renal) was 1.38 µM, the TGI (A498 renal) was 3.32 µM and the GI50 (MCF7 breast) was 0.388 µM. The TGI (MCF7 breast) was 10.6 µM, the GI50 (HT29 colon) was 0.382 µM and the TGI (HT29 colon) was 3.58 µM. The GI50 (NCI/ADR-RES ovarian) was 33.6 µM, the TGI (NCI/ADR-RES ovarian) was greater than 100 µM and the GI50 (786-0 renal) was 1.77 µM. For the same compound, the TGI (786-0 renal) was 10.3 µM, the GI50 (K-562 leukemia) was 0.706 µM and the TGI (K-562 leukemia) was 6.42 µM. For the same compound, the GI50 (NCI-H522 lung) was 0.381 µM, the TGI (NCI-H522 lung) was 2.21 µM and the GI50 (RPMI-8226 leukemia) was 2.05 µM. It also gave a TGI (RPMI-8226 leukemia) of 6.55 µM, a GI50 (M14 melanoma) of 1.6 µM and a TGI (M14 melanoma) of 3.49 µM. The GI50 (PC-3 prostate) was 1.48 µM, the TGI (PC-3 prostate) was 5.15 µM and the GI50 (CCRF-CEM leukemia) was 0.93 µM. It also gave a TGI (CCRF-CEM leukemia) of 6.95 µM, a GI50 (SW-620 colon) of 0.532 µM and a TGI (SW-620 colon) of 11 µM. For the same compound, the GI50 (SK-MEL-28 melanoma) was 2.01 µM, the TGI (SK-MEL-28 melanoma) was 4.45 µM and the GI50 (UO-31 renal) was 2.64 µM. For the same compound, the TGI (UO-31 renal) was 18.3 µM, the GI50 (T-47D breast) was 1.36 µM and the TGI (T-47D breast) was 8.3 µM. It also gave a GI50 (MALME-3M melanoma) of 1.11 µM, a TGI (MALME-3M melanoma) of 2.73 µM and a GI50 (MOLT-4 leukemia) of 0.378 µM. For the same compound, the TGI (MOLT-4 leukemia) was 5.99 µM, the GI50 (HCC-2998 colon) was 1.26 µM and the TGI (HCC-2998 colon) was 6.52 µM. For the same compound, the GI50 (OVCAR-4 ovarian) was 1.4 µM, the TGI (OVCAR-4 ovarian) was 5.18 µM and the GI50 (HCT-15 colon) was 5.45 µM. For the same compound, the TGI (HCT-15 colon) was 61.5 µM, the GI50 (RXF 393 renal) was 1.32 µM and the TGI (RXF 393 renal) was 3.69 µM. It also gave a GI50 (OVCAR-8 ovarian) of 1.14 µM, a TGI (OVCAR-8 ovarian) of 12 µM and a GI50 (DU-145 prostate) of 1.14 µM. It also gave a TGI (DU-145 prostate) of 11.8 µM, a GI50 (NCI-H460 lung) of 0.514 µM and a TGI (NCI-H460 lung) of 11.6 µM. The GI50 (COLO 205 colon) was 0.379 µM, the TGI (COLO 205 colon) was 1.82 µM and the GI50 (SK-MEL-2 melanoma) was 1.26 µM. The TGI (SK-MEL-2 melanoma) was 3.34 µM, the GI50 (SF-539 CNS) was 1.57 µM and the TGI (SF-539 CNS) was 4.11 µM. For the same compound, the GI50 (BT-549 breast) was 1.95 µM, the TGI (BT-549 breast) was 4.97 µM and the GI50 (LOX IMVI melanoma) was 0.81 µM. For the same compound, the TGI (LOX IMVI melanoma) was 10.2 µM, the GI50 (HS 578T breast) was 2.05 µM and the TGI (HS 578T breast) was 10.5 µM. It also gave a GI50 (A549 NSCLC) of 0.388 µM, a TGI (A549 NSCLC) of 11.9 µM and a GI50 (HOP-92 NSCLC) of 0.572 µM. The TGI (HOP-92 NSCLC) was 4.13 µM, the GI50 (NCI-H23 lung) was 1.02 µM and the TGI (NCI-H23 lung) was 4.27 µM. For the same compound, the GI50 (SK-OV-3 ovarian) was 0.988 µM, the TGI (SK-OV-3 ovarian) was 4.74 µM and the GI50 (SF-295 CNS) was 1.71 µM. For the same compound, the TGI (SF-295 CNS) was 10.6 µM, the GI50 (TK-10 renal) was 1.71 µM and the TGI (TK-10 renal) was 12.5 µM. The GI50 (HCT-116 colon) was 0.379 µM, the TGI (HCT-116 colon) was 10.3 µM and the GI50 (U251 CNS) was 0.682 µM. For the same compound, the TGI (U251 CNS) was 9.02 µM, the GI50 (UACC-257 melanoma) was 2.38 µM and the TGI (UACC-257 melanoma) was 5.42 µM. It also gave a GI50 (SN12C renal) of 0.517 µM, a TGI (SN12C renal) of 11.9 µM and a GI50 (OVCAR-3 ovarian) of 1.93 µM. For the same compound, the TGI (OVCAR-3 ovarian) was 8.26 µM.

For `CCN(CC)C(=O)C[n+]1c2ccccc2n2cc(N)ccc21`, the TGI (MDA-MB-231 breast) was greater than 100 µM, the TGI (KM12 colon) was greater than 100 µM and the TGI (SK-MEL-5 melanoma) was greater than 100 µM. For the same compound, the TGI (SNB-19 CNS) was greater than 100 µM, the TGI (HOP-62 NSCLC) was greater than 100 µM and the TGI (SF-268 CNS) was greater than 100 µM. It also gave a TGI (IGROV1 ovarian) greater than 100 µM, a TGI (UACC-62 melanoma) greater than 100 µM and a TGI (SR leukemia) greater than 100 µM. The TGI (SNB-75 CNS) was greater than 100 µM, the TGI (OVCAR-5 ovarian) was greater than 100 µM and the TGI (HL-60(TB) leukemia) was greater than 100 µM. The TGI (EKVX NSCLC) was greater than 100 µM, the TGI (NCI-H226 lung) was greater than 100 µM and the TGI (MDA-MB-435) was greater than 100 µM. For the same compound, the TGI (A498 renal) was greater than 100 µM, the TGI (MCF7 breast) was greater than 100 µM and the TGI (HT29 colon) was greater than 100 µM. It also gave a TGI (NCI/ADR-RES ovarian) greater than 100 µM, a TGI (ACHN renal) greater than 100 µM and a TGI (786-0 renal) greater than 100 µM. For the same compound, the TGI (K-562 leukemia) was greater than 100 µM, the TGI (RPMI-8226 leukemia) was greater than 100 µM and the TGI (M14 melanoma) was greater than 100 µM. It also gave a TGI (PC-3 prostate) greater than 100 µM, a TGI (CCRF-CEM leukemia) greater than 100 µM and a TGI (SW-620 colon) greater than 100 µM. It also gave a TGI (SK-MEL-28 melanoma) greater than 100 µM, a TGI (UO-31 renal) greater than 100 µM and a TGI (T-47D breast) greater than 100 µM. The TGI (MALME-3M melanoma) was greater than 100 µM, the TGI (CAKI-1 renal) was greater than 100 µM and the TGI (MOLT-4 leukemia) was greater than 100 µM. For the same compound, the TGI (HCC-2998 colon) was greater than 100 µM, the TGI (OVCAR-4 ovarian) was greater than 100 µM and the TGI (HCT-15 colon) was greater than 100 µM. It also gave a TGI (RXF 393 renal) greater than 100 µM, a TGI (OVCAR-8 ovarian) greater than 100 µM and a TGI (DU-145 prostate) greater than 100 µM. For the same compound, the TGI (NCI-H460 lung) was greater than 100 µM, the TGI (COLO 205 colon) was greater than 100 µM and the TGI (SK-MEL-2 melanoma) was greater than 100 µM. The TGI (SF-539 CNS) was greater than 100 µM, the TGI (BT-549 breast) was greater than 100 µM and the TGI (LOX IMVI melanoma) was greater than 100 µM. The TGI (HS 578T breast) was greater than 100 µM, the TGI (A549 NSCLC) was greater than 100 µM and the TGI (HOP-92 NSCLC) was greater than 100 µM. It also gave a TGI (NCI-H23 lung) greater than 100 µM, a TGI (SK-OV-3 ovarian) greater than 100 µM and a TGI (SF-295 CNS) greater than 100 µM. The TGI (TK-10 renal) was greater than 100 µM, the TGI (HCT-116 colon) was greater than 100 µM and the TGI (U251 CNS) was greater than 100 µM. For the same compound, the TGI (UACC-257 melanoma) was greater than 100 µM and the TGI (OVCAR-3 ovarian) was greater than 100 µM.
